Our source for the inhibition values is patent US20260297542A1, “HERBICIDE RESISTANT PLANTS” (SYNGENTA CROP PROTECTION AG, priority 2023, published 2026).

Molecules are shown by their SMILES. Numbering of substitutions follows the chain as printed.

What all share (experiment): E. coli hemG growth inhibition by herbicide, AtPPO1 variant
Holding throughout (format): cell-based
Conditions in all cases: read-out: percentage growth inhibition

Experiment [1] addresses T1, AtPPO1 L424V (Arabidopsis thaliana, UniProt P55826, L424V).
T1 construct: expressed in transfected cells; host or cells: E. coli BL21(DE3) hemG (pET24a, T7 promoter)
T1 sequence (P55826 35-537 L424V): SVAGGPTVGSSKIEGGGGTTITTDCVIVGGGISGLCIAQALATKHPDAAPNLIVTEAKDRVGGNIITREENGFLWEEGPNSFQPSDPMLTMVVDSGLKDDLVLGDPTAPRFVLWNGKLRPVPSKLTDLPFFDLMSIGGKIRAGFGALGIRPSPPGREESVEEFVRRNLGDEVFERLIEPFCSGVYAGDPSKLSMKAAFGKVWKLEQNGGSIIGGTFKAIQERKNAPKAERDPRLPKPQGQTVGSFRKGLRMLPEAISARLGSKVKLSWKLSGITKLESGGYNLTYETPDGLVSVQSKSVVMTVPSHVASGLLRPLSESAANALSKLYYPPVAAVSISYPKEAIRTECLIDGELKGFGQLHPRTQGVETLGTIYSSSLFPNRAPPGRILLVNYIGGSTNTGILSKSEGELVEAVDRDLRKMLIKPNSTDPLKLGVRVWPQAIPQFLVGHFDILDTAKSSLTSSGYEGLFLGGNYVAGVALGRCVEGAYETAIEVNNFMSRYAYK
An outline of the steps: (§1)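 Variant plasmids were transformed into hemG-null BL21(DE3) and precultured 24 h with hematin. Washed cells were diluted 1:100 into Terrific broth containing 0.1 mM IPTG and herbicide (6.25 ppm 0 or E; 0.78 ppm B) or DMSO. After 24 h at 37° C, OD600 gave percent inhibition.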

The target of experiment [2] is T2, AtPPO1 WT (Arabidopsis thaliana, UniProt P55826).
T2 construct: expressed in transfected cells; host or cells: E. coli BL21(DE3) hemG (hemG replaced by CmR), pET24a plasmid
T2 sequence (P55826 1-537): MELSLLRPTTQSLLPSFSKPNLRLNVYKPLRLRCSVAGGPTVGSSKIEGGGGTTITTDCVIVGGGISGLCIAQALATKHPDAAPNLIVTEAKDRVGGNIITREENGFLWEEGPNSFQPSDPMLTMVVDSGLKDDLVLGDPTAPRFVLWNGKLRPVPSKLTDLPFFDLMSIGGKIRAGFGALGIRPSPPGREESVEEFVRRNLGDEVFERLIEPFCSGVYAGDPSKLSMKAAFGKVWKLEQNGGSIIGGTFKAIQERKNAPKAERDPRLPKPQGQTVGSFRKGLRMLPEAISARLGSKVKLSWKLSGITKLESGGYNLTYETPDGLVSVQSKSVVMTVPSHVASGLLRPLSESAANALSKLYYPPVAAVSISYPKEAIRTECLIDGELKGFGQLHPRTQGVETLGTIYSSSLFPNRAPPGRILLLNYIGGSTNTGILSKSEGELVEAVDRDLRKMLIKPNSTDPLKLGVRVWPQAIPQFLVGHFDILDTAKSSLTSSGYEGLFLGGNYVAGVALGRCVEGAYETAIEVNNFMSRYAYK
An outline of the steps: as §1

Experiment [3] deals with T3, AtPPO1 D448H (Arabidopsis thaliana, UniProt P55826, D448H).
T3 construct: expressed in transfected cells; host or cells: E. coli BL21(DE3) hemG (pET24a, T7 promoter)
T3 sequence (P55826 35-537 D448H): T1 sequence (P55826 35-537 L424V) with V390L, D414H
An outline of the steps:
as §1

Experiment [4] concerns the target T4, AtPPO1 T431R (Arabidopsis thaliana, UniProt P55826, T431R).
T4 construct: expressed in transfected cells; host or cells: E. coli BL21(DE3) hemG (pET24a, T7 promoter)
T4 sequence (P55826 35-537 T431R): T1 sequence (P55826 35-537 L424V) with V390L, T397R
The method in brief: as §1

For `C#CCN1C(=O)C(F)(F)Oc2cc(F)c(-n3c(=O)n(C)c(=S)n(C)c3=O)cc21` [Herbicide B, trifludimoxazin], the inhibition at 0.78 ppm in experiment [1] came to 19%; in experiment [2], 61%; in experiment [3], 31%; in experiment [4], 25%.
For `CCOC(=O)[C@]1(C)CC(c2cc(-n3c(=O)n(C)c(=S)n(C)c3=O)c(F)cc2Cl)=NO1` [Herbicide D, ethyl (5S)-3-[2-chloro-5-(3,5-dimethyl-2,6-dioxo-4-thioxo-1,3,5-triazinan-1-yl)-4-fluoro-phenyl]-5-methyl-4H-isoxazole-5-carboxylate], the inhibition at 6.25 ppm was determined as 33% in experiment [1], 58% in experiment [2], 26% in experiment [3] and 28% in experiment [4].
The corresponding values for `CC(C)N(C)S(=O)(=O)NC(=O)c1cc(-n2c(=O)cc(C(F)(F)F)n(C)c2=O)c(F)cc1Cl` [Herbicide E, saflufenacil] are 66%, 64%, 57% and 56%.

In general, inhibition refers to the share of the control response that was lost under treatment.
